We go through 14 compounds from patent US20110217265A1, “Screening for Inhibitors of HCV Amphipathic Helix (AH) Function” (priority 2008, published 2011).

For one data set, the system named is 2a HCV RNA replicon. The data set is described as follows: 2a HCV RNA replicon assay (FL-J6/JFH-5'C19Rluc2AUbi, luciferase). The format is cell-based, Hepatitis C Virus genotype 2a. To be noted: Hepatitis C virus, read-out: 2a (%) Percent of virus activity remaining in the presence of the compound. The source says: Plasmids. Bart79I, a high-efficiency subgenomic replicon of HCV (28), harbors the neomycin resistance gene (neo) and the HCV nonstructural proteins. The Bart-Luciferase plasmid, Bart79I-luc, was cloned from the Bart791 parent (29) and the pGL3-Basic parent (Promega). In brief, a NotI site was introduced after the 15th amino acid of Core in Bart791 using PCR mutagenesis. The plasmid pcDNA3.1-NS4B, which encodes the Con1 NS4B sequence and was used to study the protein stability of the wild type and mutant NS4Bs, was described previously. To introduce the M2 mutation into the 4BAH2 of plasmids encoding HCV replicons or NS4B, the nucleotide sequence GCG that encodes for alanine at NS4B amino acid position 51 was changed to GAG (encoding for glutamate) and the nucleotide sequence TGG that encodes for tryptophan at amino acid position 55 was changed to GAT (encoding for aspartate) through the use of Quick-ChangeTMXL site-directed mutagenesis kit (Stratagene, La Jolla, Calif.) as described by the manufacturer and confirmed by sequencing. FL-J6/JFH-5′C19Rluc2AUbi, which is a monocistronic, full-length HCV genome that expresses Renilla luciferase (Rluc) and was derived from the previously described infectious genotype 2a HCV genome J6/JFH1.
(§1) Antiviral Assays of Compounds. Subconfluent Huh7.5 cells were trypsinized and collected by centrifugation at 700 g for 5 min. The cells were then washed three times in ice-cold RNasefree PBS buffer (BioWhittaker) and resuspended at 1.5×10^7 cells·ml^−1 in PBS buffer. Wild-type FL-J6/JFH-5′C19Rluc2AUbi and Bart79I-luc RNAs for electroporation were generated by in vitro transcription of XbaI (FL-J6/JFH-5′C19Rluc2AUbi) and ScaI (Bart791-luc)-linearized DNA templates using the T7 MEGAscript kit (Ambion), followed by phenol-chloroform purification and DEPC water suspension, 5 μg of RNA were mixed with 400 μl of washed Huh7.5 cells in a 2-mm-gap cuvette (BTX) and immediately pulsed (0.82 kV (FL-J6/JFH-5′C19Rluc2AUbi) and 0.68 kV (Bart79I-luc), five […] pulses) with a BTX-830 electroporator. After 10 min recovery at 25° C., pulsed cells were diluted into 20 ml of pre-warmed growth medium. Cells from several electroporations were pooled to a common stock and seeded in 96-well plates (17,000-20,000 cells per well). After 24 hr, compounds were added to the cells and media changes were performed daily with fresh compounds. After 72 hr of treatment, cells were incubated for 2 hr at 37° C. in the presence of 10% Alamar Blue reagent (TREK Diagnostic Systems) to assess for cytotoxicity. Plates were then scanned and fluorescence was detected by using a FLEXstation II 384 (Molecular Devices). The signal was normalized relative to untreated samples. Viral RNA replication was determined using Renilla (FL-J6/JFH-5′C19Rluc2AUbi) or firefly (Bart791-luc) luciferase assays, according to the manufacturer's (Promega) directions. The same samples subjected to the viability assay described below were analyzed in this assay. According to the manufacturer protocol, cells were washed with PBS buffer and shaken at room temperature for 15 min in 20 μl of lysis buffer. Reporter assays were performed directly in the wells of the culture plates by injecting 100 μl of the assay substrate into each well. Luminescence was measured over 10 seconds with a 2-second delay using a Berthold LB 96 V luminometer. Signal was normalized relative to untreated samples or samples grown in the presence of the corresponding concentration of DMSO. Experiments were repeated three times, each time with 4 replicates.
For orientation: Replicon systems follow genome replication, usually without infectious particles.

The test system of the next data set is Huh7.5 cells. The data set is described as follows: Alamar Blue cell viability assay. Type of data set: cell-based, human. Here is the method:
as §1, with “Plates were then scanned and fluorescence was detected by using a FLEXstation II 384 (Molecular Devices).” left out

Where only a bound is given, the exact number is not on record here.

Regarding `CC(C)CN(C)c1nc(N)c(C(=O)NCc2ccsc2)nc1Cl.Cl` [ID 148, 3-amino-6-chloro-5-(isobutyl(methyl)amino)-N-(thiophen-3-ylmethyl)pyrazine-2-carboxamide hydrochloride], in the data set with 2a HCV RNA replicon, the activity at 5 µM turned out to be 69% and the activity at 10 µM amounted to 53%. In addition, in the data set with Huh7.5 cells (5 μM), the “Cell Viability (%), alamar blue” value is 99%. Besides, the “Cell Viability (%), alamar blue” value in the data set with Huh7.5 cells (10 μM) worked out at 90%.

With `CC(C)CN(C)c1nc(N)c(C(=O)NCc2nccs2)nc1Cl.Cl` [ID 149, 3-amino-6-chloro-5-(isobutyl(methyl)amino)-N-(thiazol-2-ylmethyl)pyrazine-2-carboxamide hydrochloride], in the data set with 2a HCV RNA replicon, the activity at 5 µM came out at 68% and the activity at 10 µM was 50%. Besides, the “Cell Viability (%), alamar blue” value with Huh7.5 cells (5 μM) is reported as greater than 100%. Moreover, the “Cell Viability (%), alamar blue” value with Huh7.5 cells (10 μM) was greater than 100%.

Take `CC(C)CN(C)c1nc(N)c(C(=O)NCc2cccs2)nc1Cl` [ID 150, 3-amino-6-chloro-5-(isobutyl(methyl)amino)-N-(thiophen-2-ylmethyl)pyrazine-2-carboxamide 2,2,2-trifluoroacetate]: in the data set on 2a HCV RNA replicon, the activity at 5 µM came to 65% and the activity at 10 µM was found to be 48%. For the same compound, in the data set on Huh7.5 cells (5 μM), the “Cell Viability (%), alamar blue” value is on record as greater than 100%. Further, the “Cell Viability (%), alamar blue” value in the data set with Huh7.5 cells (10 μM) turned out to be 77%.

Regarding `CC(C)CN(C)c1nc(N)c(C(=O)Nc2ccon2)nc1Cl.Cl` [ID 200, 3-amino-6-chloro-5-(isobutyl(methyl)amino)-N-(isoxazol-3-yl)pyrazine-2-carboxamide hydrochloride], the activity at 5 µM with 2a HCV RNA replicon was determined as 77%. For the same compound, the activity at 10 µM with 2a HCV RNA replicon turned out to be 65%. Also, the “Cell Viability (%), alamar blue” value in the data set with Huh7.5 cells (5 μM) and in the data set on Huh7.5 cells (10 μM) was 96% each time.

In the case of `CC(C)CN(C)c1nc(N)c(C(=O)Nc2ccccn2)nc1Cl.Cl` [ID 201, 3-amino-6-chloro-5-(isobutyl(methyl)amino)-N-(pyridin-2-yl)pyrazine-2-carboxamide hydrochloride], in the data set on 2a HCV RNA replicon, the activity at 5 µM was 74%. For the same compound, the activity at 10 µM with 2a HCV RNA replicon was 48%. For the same compound, the results for the “Cell Viability (%), alamar blue” value with Huh7.5 cells (5 μM) and with Huh7.5 cells (10 μM) were greater than 100% and 92%, respectively.

Regarding `CC(C)CN(C)c1nc(N)c(C(=O)Nc2ccncc2)nc1Cl.Cl` [ID 203, 3-amino-6-chloro-5-(isobutyl(methyl)amino)-N-(pyridin-4-yl)pyrazine-2-carboxamide hydrochloride], in the data set with 2a HCV RNA replicon, the activity at 5 µM stood at 68% and the activity at 10 µM is 59%. The “Cell Viability (%), alamar blue” value in the data set with Huh7.5 cells (5 μM) was found to be 92%. In the data set on Huh7.5 cells (10 μM), the “Cell Viability (%), alamar blue” value is listed as 90%.

On to `CC(C)CN(C)c1nc(N)c(C(=O)NCc2ccccn2)nc1Cl.Cl` [ID 204, 3-amino-6-chloro-5-(isobutyl(methyl)amino)-N-(pyridin-2-ylmethyl)pyrazine-2-carboxamide hydrochloride], for which, in the data set with 2a HCV RNA replicon, the activity at 5 µM was determined as 66% and the activity at 10 µM was determined as 60%. The “Cell Viability (%), alamar blue” value in the data set on Huh7.5 cells (5 μM) was greater than 100%. The “Cell Viability (%), alamar blue” value with Huh7.5 cells (10 μM) is recorded as 99%.

For `CC(C)CN(C)c1nc(N)c(C(=O)Nc2nncs2)nc1Cl.Cl` [ID 205, 3-amino-6-chloro-5-(isobutyl(methyl)amino)-N-(1,3,4-thiadiazol-2-yl)pyrazine-2-carboxamide hydrochloride], the activity at 5 µM in the data set on 2a HCV RNA replicon was determined as 42%. The activity at 10 µM with 2a HCV RNA replicon stood at 17%. In addition, the “Cell Viability (%), alamar blue” value in the data set with Huh7.5 cells (5 μM) turned out to be 88%; in the data set with Huh7.5 cells (10 μM) it was 67%.

`Cc1ccncc1NC(=O)c1nc(Cl)c(N(C)CC(C)C)nc1N.Cl` [ID 235, 3-amino-6-chloro-5-(isobutyl(methyl)amino)-N-(4-methylpyridin-3-yl)pyrazine-2-carboxamide hydrochloride]: in the data set on 2a HCV RNA replicon, the activity at 5 µM is 48% and the activity at 10 µM was 22%. Also, the “Cell Viability (%), alamar blue” value with Huh7.5 cells (5 μM) was 84%. In addition, in the data set with Huh7.5 cells (10 μM), the “Cell Viability (%), alamar blue” value stood at 68%.

With `Cc1cc(NC(=O)c2nc(Cl)c(N(C)CC(C)C)nc2N)no1.Cl` [ID 236, 3-amino-6-chloro-5-(isobutyl(methyl)amino)-N-(5-methylisoxazol-3-yl)pyrazine-2-carboxamide hydrochloride], the activity at 5 µM in the data set with 2a HCV RNA replicon was 92%. In addition, in the data set on 2a HCV RNA replicon, the activity at 10 µM was 51%. For the same compound, the “Cell Viability (%), alamar blue” value in the data set with Huh7.5 cells (5 μM) came to 96%; with Huh7.5 cells (10 μM), 78%.

In the case of `Cc1cc(NC(=O)c2nc(Cl)c(N(C)CC(C)C)nc2N)cnc1Cl` [ID 291, 3-amino-6-chloro-N-(6-chloro-5-methylpyridin-3-yl)-5-(isobutyl(methyl)amino)pyrazine-2-carboxamide bis(2,2,2-trifluoroacetate)], in the data set on 2a HCV RNA replicon, the activity at 5 µM came out at 59% and the activity at 10 µM turned out to be 21%. Moreover, in the data set on Huh7.5 cells (5 μM), the “Cell Viability (%), alamar blue” value came out at 79%. For the same compound, the “Cell Viability (%), alamar blue” value in the data set on Huh7.5 cells (10 μM) was determined as 53%.

As to `COc1cc(C)c(NC(=O)c2nc(Cl)c(N(C)CC(C)C)nc2N)cn1` [ID 294, 3-amino-6-chloro-5-(isobutyl(methyl)amino)-N-(6-methoxy-4-methylpyridin-3-yl)pyrazine-2-carboxamide bis(2,2,2-trifluoroacetate)], in the data set with 2a HCV RNA replicon, the activity at 5 µM stood at 58% and the activity at 10 µM turned out to be 22%. Further, the “Cell Viability (%), alamar blue” value in the data set on Huh7.5 cells (5 μM) is given as 100%. For the same compound, the “Cell Viability (%), alamar blue” value in the data set with Huh7.5 cells (10 μM) is listed as 68%.

`CC(C)CN(C)c1nc(N)c(C(=O)Nc2ccccc2)nc1Cl` [ID 295, 3-amino-6-chloro-5-(isobutyl(methyl)amino)-N-phenylpyrazine-2-carboxamide]: in the data set with 2a HCV RNA replicon, the activity at 5 µM is 65% and the activity at 10 µM was determined as 47%. Besides, in the data set on Huh7.5 cells (5 μM), the “Cell Viability (%), alamar blue” value was greater than 100%. Besides, the “Cell Viability (%), alamar blue” value in the data set on Huh7.5 cells (10 μM) turned out to be 90%.

Consider `Cc1cncc(NC(=O)c2nc(Cl)c(N(C)CC(C)C)nc2N)c1` [ID 296, 3-amino-6-chloro-5-(isobutyl(methyl)amino)-N-(5-methylpyridin-3-yl)pyrazine-2-carboxamide bis(2,2,2-trifluoroacetate)], for which, in the data set on 2a HCV RNA replicon, the activity at 5 µM worked out at 52% and the activity at 10 µM was 18%. In the data set with Huh7.5 cells (5 μM), the “Cell Viability (%), alamar blue” value is given as 100%. Also, the “Cell Viability (%), alamar blue” value with Huh7.5 cells (10 μM) amounted to 76%.
